Data from patent US12630829B2, “Gene encoding cytochrome P450 and use thereof” (KUMIAI CHEMICAL INDUSTRY CO., LTD., priority 2020, dated 2026).
Counter-ions that a name gives are not always drawn.

Legend:
[1] = system: Arabidopsis thaliana having AK454412 introduced thereinto and wild type; test: Test of sensitivity to various drugs, AK454412-introduced versus wild type Arabidopsis thaliana; type: in vivo; conditions: evaluated subjectively based on drug concentration exhibiting the effect; 0, 0.1, 1, 10, 100, 1,000 nM
Method: Therefore, similar tests were performed on compounds having various acting properties described in HRAC including these sulfonylurea-based ALS inhibitors to search for a compound that can be metabolically degraded by AK454412. Specifically, 61 compounds arbitrarily selected from all of the 25 classifications of HRAC 2020 were subjected to sensitivity examination in Arabidopsis thaliana having AK454412 introduced thereinto and wild type. The sensitivity to each of the drugs was evaluated subjectively with respect to every acting symptom.
As a result, compounds found to have a difference in the sensitivity between the wild type and the recombinant Arabidopsis thaliana are illustrated in FIGS. 10-1 to 10-4. It is noted that concentrations of the drug in respective wells of a plate shown in each photograph in FIGS. 10-1 to 10-4 are 0, 0.1, and 1 nM in the stated order in the rightward direction in an upper portion, and 10, 100, and 1,000 nM in the stated order in the rightward direction in a lower portion. Besides, the compound found to have a sensitivity difference are listed below.

CYP81A6 = conditions: reported so far; cited from earlier work
[2] = main metabolite of fenquinotrione in a wheat body; cited from earlier work

COc1cc(OC)nc(Oc2cccc(Oc3nc(OC)cc(OC)n3)c2C(=O)[O-])n1.[Na+] [Bispyribac-sodium salt, bispyribac-sodium salt]
approximate sensitivity difference between wild type and recombinant Arabidopsis thaliana [1]: < 5

COC(=O)NS(=O)(=O)c1ccc(N)cc1 [asulam]
approximate sensitivity difference between wild type and recombinant Arabidopsis thaliana [1]: < 10

COC(=O)c1ccccc1CS(=O)(=O)NC(=O)Nc1nc(OC)cc(OC)n1 [bensulfuron-methyl]
approximate sensitivity difference between wild type and recombinant Arabidopsis thaliana [1]: 10 | metabolic reactivity of CYP81A6 against the compound (CYP81A6): exhibits metabolic reactivity

CC(C)N1C(=O)c2ccccc2NS1(=O)=O [bentazone]
approximate sensitivity difference between wild type and recombinant Arabidopsis thaliana [1]: < 5 | metabolic reactivity of CYP81A6 against the compound (CYP81A6): exhibits metabolic reactivity

O=C1CCCC(=O)C1C(=O)c1nc2c(Cl)cccc2n(-c2ccc(O)cc2)c1=O [demethylated product of fenquinotrione]
herbicidal activity [2]: does not exhibit herbicidal activity

O=C(Nc1ccc(F)cc1F)c1cccnc1Oc1cccc(C(F)(F)F)c1 [diflufenican]
approximate sensitivity difference between wild type and recombinant Arabidopsis thaliana [1]: 2

CS(=O)(=O)NC(=O)c1cc(Oc2ccc(C(F)(F)F)cc2Cl)ccc1[N+](=O)[O-] [fomesafen]
approximate sensitivity difference between wild type and recombinant Arabidopsis thaliana [1]: 3

CC(C)C1(C)N=C(c2nc3ccccc3cc2C(=O)O)NC1=O (centres unmarked) [imazaquin]
approximate sensitivity difference between wild type and recombinant Arabidopsis thaliana [1]: ≤ 10

CNc1cnn(-c2cccc(C(F)(F)F)c2)c(=O)c1Cl [norflurazon]
approximate sensitivity difference between wild type and recombinant Arabidopsis thaliana [1]: 2

CCC(CC)Nc1c([N+](=O)[O-])cc(C)c(C)c1[N+](=O)[O-] [pendimethalin]
approximate sensitivity difference between wild type and recombinant Arabidopsis thaliana [1]: < 100

COc1cnc(OC)n2nc(NS(=O)(=O)c3c(OCC(F)F)cccc3C(F)(F)F)nc12 [penoxsulam]
approximate sensitivity difference between wild type and recombinant Arabidopsis thaliana [1]: 100

O=C(Nc1ccc(F)cc1)c1cccc(Oc2cccc(C(F)(F)F)c2)n1 [picolinafen]
approximate sensitivity difference between wild type and recombinant Arabidopsis thaliana [1]: 2

CCOC(=O)COc1cc(-c2nn(C)c(OC(F)F)c2Cl)c(F)cc1Cl [pyraflufen-ethyl]
approximate sensitivity difference between wild type and recombinant Arabidopsis thaliana [1]: 10

CO/N=C(/C)c1cccc(Oc2nc(OC)cc(OC)n2)c1C(=O)OC [pyriminobac-methyl]
metabolic reactivity of CYP81A6 against the compound (CYP81A6): exhibits metabolic reactivity

COCc1cccc(C(O)c2nc(OC)cc(OC)n2)c1NS(=O)(=O)C(F)F (centres unmarked) [pyrimisulfan]
approximate sensitivity difference between wild type and recombinant Arabidopsis thaliana [1]: 100 | metabolic reactivity of CYP81A6 against the compound (CYP81A6): exhibits metabolic reactivity

COc1cc(OC)nc(Sc2cccc(Cl)c2C(=O)O)n1 [pyrithiobac-sodium salt]
approximate sensitivity difference between wild type and recombinant Arabidopsis thaliana [1]: 100

Cc1nn(-c2cc(NS(C)(=O)=O)c(Cl)cc2Cl)c(=O)n1C(F)F [sulfentrazone]
approximate sensitivity difference between wild type and recombinant Arabidopsis thaliana [1]: 10

COC(=O)c1ccccc1S(=O)(=O)NC(=O)Nc1nc(C)cc(C)n1 [sulfometuron-methyl]
approximate sensitivity difference between wild type and recombinant Arabidopsis thaliana [1]: 5

fluridone
approximate sensitivity difference between wild type and recombinant Arabidopsis thaliana [1]: 2

oxadiargyl
approximate sensitivity difference between wild type and recombinant Arabidopsis thaliana [1]: 2
